Three molecules from patent US8703726B2, “Methods for treating prostate conditions” (PTC Therapeutics, Inc., priority 2009, dated 2014) can be followed below.

Like-named read-outs stand apart in the source and are kept apart here.

Series [1] concerns LNCaP prostate tumor cells. Nature of the series: LNCaP tumors in SCID mice: Compound #10 as monotherapy and with bicalutamide.
Procedure: (§1) Male C.B.17 SCID mice (Charles River Laboratory; Wilmington, Mass.) were inoculated with LNCaP prostate tumor cells (6.1×10^6 cells/mouse) obtained from the ATCC (Manassas, Va.). […] Mice were inoculated using a 25 gauge needle in the right flank in a volume of 0.2 mL. A total of 95 mice were injected, of which 32 were used.
(§2) Twenty-seven days after inoculation, the mice were randomized into 4 groups as outlined in Table 33. […] Treatment started on Day 0 and continued through Day 30.
(§3) Body Weight: One day prior to the initiation of the study, the mice were weighed. Thereafter, mice were weighed every week and on the day that the study was terminated.
(§4) Tumor Size: Tumors were measured every 3 to 4 days using digital calipers. To calculate tumor volume, the following calculation was used, where L equals the longest dimension measurement and W equals the shortest dimension measurement:
(§5) Tumor growth was calculated as: [1-[(final tumor size minus initial tumor size in test compound treated-mice)/(final tumor size minus initial tumor size in vehicle-treated mice)]×100%
(§6) Percent change in body weight was calculated as: [(Body weight on Day of study)−(initial body weight)/(initial body weight)]×100%
(§7) Differences in tumor size, tumor growth, and body weight change among groups were analyzed by ANOVA (analysis of variance) (SigmaStat 3.0).
For series [2], the system named is LNCaP prostate tumor cells. As to conditions: mouse, in vivo, po, 25 mg/kg.
Procedure: as §1, §2, §3, §4, §5, §6, §7
Series [3] relates to LNCaP prostate tumor cells. Conditions: mouse, in vivo, iv, 3 mg/kg.
Procedure: as §1
(§8) Treatment started on Day 0 and continued through Day 31.
as §3, §4
(§9) Data Analysis: Tumor growth was calculated as: [1-[(final tumor size minus initial tumor size in test compound treated-mice)/(final tumor size minus initial tumor size in vehicle-treated mice)]×100%
as §6, §7
Series [4] concerns LNCaP prostate tumor cells. Nature of the series: LNCaP tumors in SCID mice: Compound #10 as monotherapy and with docetaxel.
Procedure: as §1, §8, §3, §4, §9, §6, §7
A further series has as its system PC3 xenografts. Nature of the series: PC3 tumors in mice: Compound #10 as monotherapy and with docetaxel.
For the next series, the system named is HT1080 cells. The experiment in a line: Cell cycle analysis by propidium iodide flow cytometry in HT1080 cells (% cells in S-phase, Table 24). As to conditions: same tumor cells. It counts as cell-based, human. As to the method: Experimental Design. […] After treatment, cells were trypsinized, and stained with propidium iodide (PI) dye to measure DNA content of individual cells by flow cytometry. Output comprised histograms showing relative DNA content in 10,000 cells.
While compounds which cause greater than 20% of the cells to accumulate in S-phase at 100 nM are considered active, a larger percentage of cells may be accumulated in S-phase at lower doses depending on the Compound, as shown in FIG. 12 for example.

The mark [5] stands for this setting: Bicalutamide, 25 mg/kg QD on Days 0, 1, 2, 3, 6, 7, 8, 9, and 10, L21 vehicle, QD, oral.
[6] abbreviates: Docetaxel, 3 mg/kg IV on Days 1 and 8, Vehicle, QD, daily.

Procedure for PC3 xenografts: PC3 cells (CRL 1435) obtained from the American Type Tissue Collection (ATCC, Manassas, Va.) were thawed and seeded at 0.5×10^7 cells per 175 mm^2 flask. Cells were fed and expanded on a regular schedule to reach a given density prior to passage. Flasks were between 80-90% confluent, but not >95% confluent on the day of harvest. Harvest occurred ˜48 hr after the previous split to allow for full recovery.
To harvest the cells, medium was removed from the flasks and the cell layers rinsed with 37° C. PBS. A volume of 3 mL trypsin-EDTA was added per 175 cm^2 surface area and incubated at room temperature for 5 minutes until the cells detached. The cells were collected in 7-10 mL ice cold complete medium and were transferred to a conical tube. The tube was placed immediately on ice. After all flasks were harvested, the cells were pelleted by centrifugation at 4° C. Cells were re-suspended at 2.5×10^7 cells/mL in Hank's Salt Solution and 10 mM HEPES. Cells were stored on ice until the time of tumor inoculation (which was less than 1 h later).
Tumor Cell Injection: Tumor cells were kept on ice at all times. […] A 25-gauge needle was used for tumor cell injections. Tumor cells were injected in a volume of 0.2 mL subcutaneously. A total of 100 mice were inoculated, of which 69 were used in the study.
Seventeen days after inoculation, the mice were randomized into six groups. At this time, the majority of the tumors had reached a volume of 170-415 mm^3. Randomization of the mice was performed by using the formula RAND ( )*5000 from Microsoft Excel. […] Animals with tumors that were not within the 170-415 mm^3 range were excluded from the study.
Furthermore, all animals in a group were taken off study when the mean tumor size in that group reached 1000 mm^3.
as §4
Differences in mean tumor size, tumor growth, and body weight change were compared across groups using analysis of variance (ANOVA) (SigmaStat 3.0).
To calculate the time to progression, defined as the number of days for a tumor to reach 1000 mm^3, tumor growth vs time was individually plotted for each animal. The time to reach 1000 mm^3 estimated for each animal. […] The median and mean time for each treatment group to reach 1000 mm^3 was then calculated and groups were compared using ANOVA (SigmaStat 3.0).
as §3

For the molecule `CC(O)(CS(=O)(=O)c1ccc(F)cc1)C(=O)Nc1ccc(C#N)c(C(F)(F)F)c1` (centres unmarked) [bicalutamide], in series [1] (setting [5]), the “Percent Inhibition Relative to Vehicle: Tumor Growth From Day 0 to 31” value is recorded as 9.3%^ and the “Percent Inhibition Relative to Vehicle: Tumor Volume at Day 31” value was 7.2%^. For the same molecule, in series [1] (Day 30, Compound #10 10 mg/kg PO QD, bicalutamide 25 mg/kg QD), the “mean±SD tumor size” value is 1059±321 mm3. In series [2], the “Day of Maximal Loss (body weight)” value is 20 days and the “Maximal Body Weight Loss From Initial Weight” value is −5.3%.
In the case of `CC(=O)O[C@@]12CO[C@@H]1C[C@H](O)[C@@]1(C)C(=O)[C@H](O)C3=C(C)[C@@H](OC(=O)[C@H](O)[C@@H](NC(=O)OC(C)(C)C)c4ccccc4)C[C@@](O)([C@@H](OC(=O)c4ccccc4)[C@H]21)C3(C)C` [docetaxel], in series [3], the “Day of Maximal Loss (body weight)” value was “(Day 13)” and the “Maximal Body Weight Loss From Initial Weight” value is given as −15%. For the same molecule, the “mean±SD tumor size” value in series [4] (Day 31, Compound #10 10 mg/kg PO QD, docetaxel 3 mg/kg Days 1 and 8) was 1017±458 mm3. Also, in series [4] (Day 31, docetaxel 3 mg/kg Days 1 and 8), the “inhibition of tumor size or of the increase in tumor size versus vehicle” value was “No statistically significant differences”. Also, in series [4] (setting [6]), the “Percent Inhibition Relative to Vehicle: Tumor Growth From Day 0 to 31” value came out at 17% and the “Percent Inhibition Relative to Vehicle: Tumor Volume at Day 31” value was determined as 12%. The “Average Time on Therapy” value with PC3 xenografts (3 mg/kg IV Day 1, 8 and 10 mg/kg Day 29, vehicle 22) is 23 days. Also, in the series with PC3 xenografts (3 mg/kg IV Day 1, 8 and 10 mg/kg Day 29, vehicle 23), the “Median Time to Reach 1000 mm^3 (time to progression)” value turned out to be 22 days. Moreover, in the series with PC3 xenografts (PC3 tumor-bearing mice, Day 35 / Day 42), the “body weight change” value is “significantly more weight loss”. Moreover, the “median time to progression (tumor ≧1000 mm^3)” value in the series on PC3 xenografts (docetaxel IV 3 mg/kg on Day 1 and at 8 and 10 mg/kg on Day 29) was found to be 22 days. Moreover, the “tumors vs vehicle-treated mice” value in the series on PC3 xenografts (docetaxel IV, up to Day 35) was “not significantly different from the tumors in vehicle-treated mice”.
`NC(Cn1ccc(=O)c(O)c1)C(=O)O` (centres unmarked) [mimosine]: in the series on HT1080 cells, the “effect of comparator on cell cycle (and VEGF production) (data not shown)” value was “does not delay or prolong the cell cycle or reduce VEGF production”.
